Test results reported in patent US3976779A, “1,2,3,4-Tetrahydro-carbazole compounds and β-adrenergic compositions” (Boehringer Mannheim G.m.b.H., priority 1974, dated 1976).

Assays:
cardiac β-receptor = experiment: Blocking of isoprenalin tachycardia in wake rabbits (β-receptor blocking activity); conditions: for DE250: wake rabbits, interpolated dosage which limits frequency increase to 250 beats/min, 15 min i.v. infusion, isoprenalin i.v. 30 min after infusion; for Therapeutic Index (LD50:DE250): LD50 mouse i.v. : DE250 wake rabbit i.v.
Procedure: (§1) The following tests were carried out to determine the toxicity and the cardiac β-receptor blocking activity of certain test compounds by determining the inhibition of the heart beat frequency increase induced by intravenous administration of isoprenalin.
The β-receptor blocking activity of the test compounds was tested on wake rabbits weighing between 2 to 3.5 kg. and kept in wooden cages. EKG-electrodes were inserted into the hind quarters of the rabbits s.c. (II. lead) and the heart frequency was measured based on 20 heart beats. The test compounds were then infused through a small tube to the ear vein of the rabbits over a period of 15 minutes. 30 minutes after the infusion isoprenalin (3,4-dihydro-a-[(isopropylamino)-methyl]-benzylalcohol) was injected intravenously at 1 /ug/kg.

in vivo = conditions: iv, mouse, i.v., dosage at which 50% of the mice die, read-out: Acute Toxicity LD50 Mouse
Procedure: as §1

| SMILES | DE250 (cardiac β-receptor) | LD50 (in vivo) | Therapeutic Index (LD50:DE250) (cardiac β-receptor) |
| --- | --- | --- | --- |
| CC(C)NCC(O)COc1cccc2ccccc12 (stereo not shown) [Compound A, 1-Isopropylamino-3-(1-napthoxy)-2-propanol, reference compound] | 0.400 mg/kg i.v. |  |  |
| CC(C)NCC(O)COc1cccc2[nH]c3c(c12)CCCC3 (stereo not shown) [Compound I, 1,2,3,4-Tetrahydro-5-(2-hydroxy-3-isopropylamino-propoxy)-carbazole] | 0.040 mg/kg i.v. | ~8 mg/kg | ~ 200 |
| CC(C)(C)NCC(O)COc1cccc2[nH]c3c(c12)CCCC3 (stereo not shown) [Compound II, 1,2,3,4-Tetrahydro-5-(2-hydroxy-3-tert. butylaminopropoxy)-carbazole] | 0.008 mg/kg i.v. | 7 mg/kg | 875 |
